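Each compound was tested at five concentrations against cells in 96-well plates for 48 hours. Abbreviation: GI50, concentration required for 50% inhibition of growth. TGI: concentration producing complete growth inhibition.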
Key:
Experiment in all cases: growth of human tumour cells (NCI), 48 h
COLO 205 colon = system: COLO 205 colon
SK-MEL-28 melanoma = system: SK-MEL-28 melanoma
OVCAR-8 ovarian = system: OVCAR-8 ovarian
SF-539 CNS = system: SF-539 CNS
TK-10 renal = system: TK-10 renal
HOP-62 NSCLC = system: HOP-62 NSCLC
LOX IMVI melanoma = system: LOX IMVI melanoma
CCRF-CEM leukemia = system: CCRF-CEM leukemia
HCT-15 colon = system: HCT-15 colon
HCT-116 colon = system: HCT-116 colon
SF-295 CNS = system: SF-295 CNS
K-562 leukemia = system: K-562 leukemia
MALME-3M melanoma = system: MALME-3M melanoma
UACC-62 melanoma = system: UACC-62 melanoma
UACC-257 melanoma = system: UACC-257 melanoma
HL-60(TB) leukemia = system: HL-60(TB) leukemia
IGROV1 ovarian = system: IGROV1 ovarian
A549 NSCLC = system: A549 NSCLC
MDA-MB-468 breast = system: MDA-MB-468 breast
HS 578T breast = system: HS 578T breast
PC-3 prostate = system: PC-3 prostate
SK-MEL-2 melanoma = system: SK-MEL-2 melanoma
MDA-MB-435 = system: MDA-MB-435
786-0 renal = system: 786-0 renal
MOLT-4 leukemia = system: MOLT-4 leukemia
KM12 colon = system: KM12 colon
BT-549 breast = system: BT-549 breast
A498 renal = system: A498 renal
CAKI-1 renal = system: CAKI-1 renal
HT29 colon = system: HT29 colon
MDA-MB-231 breast = system: MDA-MB-231 breast
RPMI-8226 leukemia = system: RPMI-8226 leukemia
SR leukemia = system: SR leukemia
SNB-19 CNS = system: SNB-19 CNS
RXF 393 renal = system: RXF 393 renal
SK-OV-3 ovarian = system: SK-OV-3 ovarian
SW-620 colon = system: SW-620 colon
U251 CNS = system: U251 CNS
SNB-75 CNS = system: SNB-75 CNS
HOP-92 NSCLC = system: HOP-92 NSCLC
NCI-H522 lung = system: NCI-H522 lung
M14 melanoma = system: M14 melanoma
SF-268 CNS = system: SF-268 CNS
DU-145 prostate = system: DU-145 prostate
NCI-H23 lung = system: NCI-H23 lung
NCI/ADR-RES ovarian = system: NCI/ADR-RES ovarian

## Cc1noc2c(Cc3ccccc3)nn(CC(=O)N/N=C/c3ccc(Cl)cc3)c(=O)c12
COLO 205 colon
  GI50: 5.04 µM
  TGI: > 100 µM
SK-MEL-28 melanoma
  GI50: > 100 µM
  TGI: > 100 µM
OVCAR-8 ovarian
  GI50: 3.18 µM
  TGI: > 100 µM
SF-539 CNS
  GI50: 14.1 µM
  TGI: 35.9 µM
TK-10 renal
  GI50: 1.9 µM
  TGI: 4.74 µM
HOP-62 NSCLC
  GI50: 2.06 µM
  TGI: 4.97 µM
LOX IMVI melanoma
  GI50: 5.61 µM
  TGI: > 100 µM
CCRF-CEM leukemia
  GI50: 21.1 µM
  TGI: > 100 µM
HCT-15 colon
  GI50: > 100 µM
  TGI: > 100 µM
HCT-116 colon
  GI50: 3.16 µM
  TGI: > 100 µM
SF-295 CNS
  GI50: 3.19 µM
  TGI: 8.64 µM
K-562 leukemia
  GI50: 88.6 µM
  TGI: > 100 µM
MALME-3M melanoma
  GI50: 4.23 µM
  TGI: 29.1 µM
UACC-62 melanoma
  GI50: 18.3 µM
  TGI: 86 µM
UACC-257 melanoma
  GI50: > 100 µM
  TGI: > 100 µM
HL-60(TB) leukemia
  GI50: > 100 µM
  TGI: > 100 µM
IGROV1 ovarian
  GI50: 6.95 µM
  TGI: 31.2 µM
A549 NSCLC
  GI50: 3.87 µM
  TGI: > 100 µM
MDA-MB-468 breast
  GI50: 8.11 µM
  TGI: 36.2 µM
HS 578T breast
  GI50: 2.31 µM
  TGI: 6.23 µM
PC-3 prostate
  GI50: > 100 µM
  TGI: > 100 µM
SK-MEL-2 melanoma
  GI50: 19.1 µM
  TGI: 38.4 µM
MDA-MB-435
  GI50: > 100 µM
  TGI: > 100 µM
786-0 renal
  GI50: 1.94 µM
  TGI: 3.84 µM
MOLT-4 leukemia
  GI50: > 100 µM
  TGI: > 100 µM
KM12 colon
  GI50: > 100 µM
  TGI: > 100 µM
BT-549 breast
  GI50: 23.8 µM
  TGI: 90.6 µM
A498 renal
  GI50: 1.65 µM
  TGI: 3.11 µM
CAKI-1 renal
  GI50: 2.88 µM
  TGI: 11.1 µM
HT29 colon
  GI50: > 100 µM
  TGI: > 100 µM
MDA-MB-231 breast
  GI50: 2.59 µM
  TGI: 7.3 µM
RPMI-8226 leukemia
  GI50: 8.98 µM
  TGI: > 100 µM
SR leukemia
  GI50: 31.2 µM
  TGI: > 100 µM
SNB-19 CNS
  GI50: 8.48 µM
  TGI: 26.7 µM
RXF 393 renal
  GI50: 2.15 µM
  TGI: 6.87 µM
SK-OV-3 ovarian
  GI50: 2.34 µM
  TGI: 5.85 µM
SW-620 colon
  GI50: > 100 µM
  TGI: > 100 µM
U251 CNS
  GI50: 3.64 µM
  TGI: > 100 µM
SNB-75 CNS
  GI50: 1.59 µM
  TGI: 4.36 µM
HOP-92 NSCLC
  GI50: 3.01 µM
  TGI: 16.6 µM
NCI-H522 lung
  GI50: 15.4 µM
  TGI: > 100 µM
M14 melanoma
  GI50: 43.6 µM
  TGI: > 100 µM
SF-268 CNS
  GI50: 7.82 µM
  TGI: > 100 µM
DU-145 prostate
  GI50: > 100 µM
  TGI: > 100 µM
NCI-H23 lung
  GI50: 10.2 µM
  TGI: 53.7 µM
NCI/ADR-RES ovarian
  GI50: 4.93 µM
  TGI: > 100 µM

Source: PubChem BioAssay (NCI)
